Columns and labels:
growth plate cartilage = test: Growth plate histology, resting and proliferating chondrocyte zone (R+P); assay type: in vivo, mice; settings: Dexa alone, four weeks
Description: Four weeks old mice (female, FVB) were injected with Dexa dissolved in saline ([…]) subcutaneously in the neck every day for four week. Whereas, HNG (S14G) dissolved in saline (1 μg/mice) was injected intra-peritoneally, 45 minutes prior to the Dexa injection for four weeks, for details see materials and methods. The femur and tibia bones were dissected out and fixed in 4% formalin for 24 hrs, followed by decalcification in 10% EDTA and embedded in paraffin blocks. Five-micrometer-thick sections were prepared from these paraffin blocks. The sections were prepared from the tibial growth plate and stained with Van Gieson. Digital images of stained sections were collected using a Nikon Eclipse E800 microscope (Nikon Corp., Tokyo, Japan) equipped with an Olympus DP70 digital camera (Olympus Sverige AB, Solna, Sweden).
Since a positive effect of HNG (S14G) on bone growth was identified, different zones of chondrocytes were analyzed (resting, proliferative and hypertrophic) in growth plate cartilage, to identify visible changes in these zones. […] These micropgraphas also explain the longitudinal bone growth promoting effects by HNG (S14G) alone or in combination with Dexa.

[1] = system: fetal rat metatarsal bones; test: Longitudinal growth of cultured fetal rat metatarsal bones; assay type: cell-based
Description: The three middle metatarsal bone rudiments were dissected out from the paws of 20-day-old embryos (E20) (De Luca, Barnes et al. 2001). After dissection, bones were transferred to 24-well plates, one bone per well and cultured in 0.5 ml phenol-red MEM medium supplemented with 0.2% endotoxin-free fraction BSA, […] β-glycerophosphate, 0.05 mg/ml ascorbic acid and 100 μg/ml penicillin/streptomycin at 37° C. under 5% CO2 in humidified atmosphere. Medium was changed every 2-3 days. Images were captured at days 0, 2, 5, 7, 9 and 12 of culture, using a Hamamatsu C4742-95 digital camera mounted on a Nikon SMZ-U microscope. The Image-Pro plus™ (Media Cybernetics, USA) software was used to measure longitudinal growth. Metatarsal bone growth is expressed as a percentage of the length at the day of dissection (regarded as day 0). Treatment with CT (bortezomib), dexamethasone and/or HNG (S14G) was started 2-4 hours after dissection. All isolated bones were pooled and then randomly divided into the different treatment groups (4 to 6 bones per group). Each experiment was repeated at least 3 times.
The data shown in FIG. 2A indicates novel growth promoting/protective effects of humanin analog HNG (S14G) on longitudinal bone growth in cultured fetal rat metatarsal bones. […] Briefly, fetal rat metatarsal bones were pre-treated with different concentrations (mentioned in the figure) of HNG (S14G), 30 min prior to addition of Dexa. […] (n=4-6 bones/group)
CT (bortezomib) is a cytotoxic drug known to cause critical alterations in cells/tissues and disturb the cellular homeostasis. To test the effect of CT (bortezomib) on chondocytes and longitudinal bone growth, the established in vitro model of fetal rat metatarsal bones was used. These bones were collected as described in material and methods, cultured and treated with different concentrations of CT (bortezomib) under sterile conditions for up to 12 days. […] Apoptosis was analyzed in whole growth plate sections of 12-day cultured rat metatarsal bones (perichondrium excluded) by applying the TUNEL technique to detect DNA fragmentation.
In an attempt to block and prevent the negative effects on growth after CT (bortezomib)-treatment, recently discovered humanin analog HNG (S14G) was tested in vitro in fetal rat metatarsal bones.

FVB mice = test: Dexa-induced growth retardation in FVB mice (tibia length, nose to anus length); assay type: in vivo; settings: Dexa 20 μg/mice/day s.c.
Description: Four weeks old female mice FVB strain were obtained from Charles-River, Germany. The mice were kept in animal facility under a 12-h light, 12-h dark schedule with water ad libitum. After an adaptation period, mice were injected with Dexa dissolved in saline (20 μg/mice) subcutaneously in the neck every day for 1 week (short-term). Whereas, HNG (S14G) dissolved in saline (1 μg/mice) was injected intraperitoneally, 45 minutes prior to Dexa injection. The vehicle group received saline only. After one week of treatment/injections, animals were sacrificed and the back legs (femur and tibia) were collected. The skin and muscle from the tibia was removed and final length of tibia was measured by using electronic digital caliper as reported previously (Zaman, Menendez-Benito et al. 2007).
In another study, four weeks old female mice FVB strain (Charles-river, Germany) were injected with Dexa dissolved in saline (20 μg/mice) subcutaneously in the neck every day for four week (long-term). Whereas, HNG (S14G) dissolved in saline (1 μg/mice) was injected intraperitoneally, 45 minutes prior to Dexa injection. The vehicle group received saline only. The total body length (nose to anus) was measured (centimeters, cm) manually (blinded, the cadges were coded on the day of measurment), every week. After 4 weeks of treatment, animals were sacrificed by inhalation of CO2, tissue samples (both left and right leg) were collected for subsequent analysis.
HNG injections were given […] prior to Dexa injections. […] After this, we next asked whether HNG (S14G) has any protective effects on bone growth after long-term treatment with Dexa (FIG. 3A). To investigate this, we treated mice for 4 weeks (group 2) with Dexa (20 μg/mice/day) and HNG (1 μg/mice/day). […] In FIG. 3B, total growth of the animals, nose to anus length (cm, manually) was analyzed in vehicle, Dexa, HNG (S14G) and Dexa/HNG (S14G) treated animals after four weeks of injections. **p<0.01 by 1-way ANOVA analyses, n=9-10/animals/group).

growth plate = system: growth plate
Source text: The proteasome inhibitors (PIs), including bortezomib (Velcade™, PS-341), belong to another novel and promising group of CT that has past phase I clinical trials (Blaney, Bernstein et al. 2004) and are now under phase II clinical trials in pediatric cancers. However, secondary effects on normal bystander tissues of primary life saving modalities are so far unknown.

male Wistar rats = settings: cited from earlier work

C[C@@H]1C[C@H]2[C@@H]3CCC4=CC(=O)C=C[C@]4(C)[C@@]3(F)[C@@H](O)C[C@]2(C)[C@@]1(O)C(=O)CO [Dexa, Dexamethasone, reference compound]
size of resting and proliferating chondrocyte zone (R+P) (growth plate cartilage): appears smaller
longitudinal bone growth ([1]; Dexa 1 μM alone): induced growth retardation
growth (tibia length) (FVB mice; 1 week): significantly induced growth retardation
growth (nose to anus length) (FVB mice; 4 weeks, vs vehicle): significantly growth retarded

CC(C)C[C@H](NC(=O)[C@H](CC(C)C)NC(=O)[C@H](CC(C)C)NC(=O)OCc1ccccc1)B(O)O [MG262]
effect on growth plate and growth (growth plate): permanent growth retardation and chondrocyte cell death

COc1cccc2c1C(=O)c1c(O)c3c(c(O)c1C2=O)C[C@@](O)(C(=O)CO)C[C@@H]3O[C@H]1C[C@H](N)[C@H](O)[C@H](C)O1 [doxorubicin]
reduction in tibia length (male Wistar rats): 18%

CN(Cc1cnc2nc(N)nc(N)c2n1)c1ccc(C(=O)N[C@@H](CCC(=O)O)C(=O)O)cc1 [methotrexate]
reduction in tibia length (male Wistar rats): 5%

Colivelin
protection against Dexa-induced bone growth retardation ([1]; colivelin 100 μM combined with Dexa 1 μM): some protective effect against Dexa-induced bone growth retardation
longitudinal growth ([1]; colivelin alone, cultured for 12 days): some stimulatory effect on longitudinal growth
